According to PubChem BioAssay (NCI):
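Exposure lasted 48 hours, with cells grown in 96-well plates and compounds tested at five concentrations. Here, GI50 denotes the concentration required for 50% inhibition of growth. TGI marks complete inhibition of growth.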

Key:
Test in all cases: NCI anticancer screen, dose series, 48 h
[1] = test system: CAKI-1 renal
[2] = test system: EKVX NSCLC
[3] = test system: KM12 colon
[4] = test system: M14 melanoma
[5] = test system: NCI-H226 lung
[6] = test system: OVCAR-8 ovarian
[7] = test system: SNB-75 CNS
[8] = test system: T-47D breast
[9] = test system: U251 CNS
[10] = test system: UACC-62 melanoma

O=C(c1ccco1)c1c(C(F)(F)F)nc2ccc(C(F)(F)F)cc2[n+]1[O-]
GI50 [1]: 24.5 µM | TGI [1]: > 83.2 µM | GI50 [2]: 19.9 µM | TGI [2]: > 69.6 µM | GI50 [3]: 68 µM | TGI [3]: > 100 µM | GI50 [4]: 35.8 µM | TGI [4]: > 100 µM | GI50 [5]: 32.1 µM | TGI [5]: > 100 µM | GI50 [6]: 35.3 µM | TGI [6]: > 100 µM | GI50 [7]: 16.9 µM | TGI [7]: 36.4 µM | GI50 [8]: 36.3 µM | TGI [8]: > 87.5 µM | GI50 [9]: 25.9 µM | TGI [9]: 61.5 µM | GI50 [10]: 44.2 µM | TGI [10]: > 100 µM

N#Cc1ccsc1NC(=O)COC(=O)c1cccc(S(=O)(=O)N2CCc3ccccc32)c1
GI50 [1]: 42.4 µM | TGI [1]: > 100 µM | GI50 [2]: 68.3 µM | TGI [2]: > 100 µM | GI50 [3]: 38.6 µM | TGI [3]: > 100 µM | GI50 [5]: > 100 µM | TGI [5]: > 100 µM | GI50 [7]: 29.9 µM | TGI [7]: > 100 µM | GI50 [8]: 37.5 µM | TGI [8]: > 100 µM | GI50 [9]: 11.2 µM | TGI [9]: > 100 µM | GI50 [10]: 32 µM | TGI [10]: > 100 µM

C=C1CC[C@@H]2[C@](C)(COC(C)=O)[C@H](OC(C)=O)CC[C@@]2(C)[C@@H]1CC(Nc1ccc(S(=O)(=O)Nc2cc(C)on2)cc1)C1=CCOC1=O (stereo partly specified)
GI50 [1]: 4.14 µM | TGI [1]: 14.7 µM | GI50 [2]: 11 µM | TGI [2]: 25.9 µM | GI50 [3]: 1.83 µM | TGI [3]: 3.69 µM | GI50 [4]: 1.69 µM | TGI [4]: 4.17 µM | GI50 [6]: 1.88 µM | TGI [6]: 4.3 µM | GI50 [7]: 2.03 µM | TGI [7]: 11.5 µM | GI50 [8]: 2.8 µM | TGI [8]: 7.37 µM | GI50 [9]: 1.89 µM | TGI [9]: 3.4 µM | GI50 [10]: 2.13 µM | TGI [10]: 7.06 µM

CN(C)CCC=C1c2ccccc2C(C)(C)c2ccccc21
GI50 [1]: 8.56 µM | TGI [1]: 23.6 µM | GI50 [2]: 14.4 µM | TGI [2]: 30 µM | GI50 [3]: 14.8 µM | TGI [3]: 28.4 µM | GI50 [4]: 2.94 µM | TGI [4]: 9.78 µM | GI50 [6]: 18.6 µM | TGI [6]: 37.6 µM | GI50 [7]: 2.86 µM | TGI [7]: 17.6 µM | GI50 [8]: 11.5 µM | TGI [8]: 27.4 µM | GI50 [9]: 12.2 µM | TGI [9]: 26.1 µM | GI50 [10]: 11.6 µM | TGI [10]: 27 µM

COC(=O)c1ccc2c(c1)C(=O)c1c-2n(C)c(=O)c2cc(OC)c(OC)cc12
GI50 [1]: > 50 µM | TGI [1]: > 50 µM | GI50 [2]: > 50 µM | TGI [2]: > 50 µM | GI50 [3]: > 50 µM | TGI [3]: > 50 µM | GI50 [4]: > 50 µM | TGI [4]: > 50 µM | GI50 [5]: > 50 µM | TGI [5]: > 50 µM | GI50 [6]: > 50 µM | TGI [6]: > 50 µM | GI50 [8]: > 50 µM | TGI [8]: > 50 µM | GI50 [9]: 19.8 µM | TGI [9]: > 50 µM | GI50 [10]: > 50 µM | TGI [10]: > 50 µM

COc1cccc(-n2cc(-c3nc(Nc4cc(C)[nH]n4)c4ccccc4n3)nn2)c1
GI50 [1]: 0.165 µM | TGI [1]: 5.62 µM | GI50 [3]: 1.69 µM | TGI [3]: 7.39 µM | GI50 [4]: 1.1 µM | TGI [4]: 9.51 µM | GI50 [5]: 4.02 µM | TGI [5]: 10.6 µM | GI50 [6]: 2.88 µM | TGI [6]: 11.7 µM | GI50 [7]: 1.15 µM | TGI [7]: 7.9 µM | GI50 [8]: 2 µM | TGI [8]: 9.61 µM | GI50 [9]: 1.87 µM | TGI [9]: 9.32 µM | GI50 [10]: 2.86 µM | TGI [10]: 11.3 µM

O=C(O)C1C2C=CC(C2)C1C(=O)O (stereo unspecified)
GI50 [1]: > 100 µM | TGI [1]: > 100 µM | GI50 [3]: > 100 µM | TGI [3]: > 100 µM | GI50 [4]: > 100 µM | TGI [4]: > 100 µM | GI50 [5]: > 100 µM | TGI [5]: > 100 µM | GI50 [6]: > 100 µM | TGI [6]: > 100 µM | GI50 [7]: > 100 µM | TGI [7]: > 100 µM | GI50 [8]: > 100 µM | TGI [8]: > 100 µM | GI50 [9]: > 100 µM | TGI [9]: > 100 µM | GI50 [10]: > 100 µM | TGI [10]: > 100 µM
